The subject of test [1] is CDCA1-A24 (56-64)-specific CTLs. In words: In vitro cross-presentation assay with unfixed or fixed DCs, intracellular IFN-gamma. The test is classed as cell-based, human. The settings on record: cross presented by unfixed DCs (DC+LP); peptide 16 micro M, 3 h pulse. How it is done: An HLA-A24^+ donor (HD2)-derived DCs were kept alive or fixed for 3 min in 0.1% glutaraldehyde (Sigma-Aldrich), pulsed with peptides (16 micro M) for 3 h, and washed 3 times. OK432 (0.1 KE/mL, Chugai Pharmaceutical Co, Tokyo, Japan) was added to induce the maturation of DCs during and after the peptide pulse. CDCA1-A24 (56-64)-reactive bulk CTLs were added at a 2:1 ratio for 6 h in medium containing 10 micro g/mL brefeldin A (Sigma-Aldrich). The brefeldin A was added to inhibit protein secretion during the stimulation. IFN-gamma production by the CDCA1-A24 (56-64)-specific CTLs was measured by intracellular labeling. The cells were stained with a FITC-labeled anti-human IFN-gamma mAb (BioLegend) in combination with a PerCP-labeled anti-human CD8 mAb (BioLegend) and a PE-labeled CDCA1-A24 (56-64)-specific tetramer. Data acquisition was performed on a FACSCalibur (BD Biosciences) and data files were analyzed with FlowJo software (Tree Star, Ashland, Oreg.).

The test system of test [2] is Th cell clones. In words: Recognition of CDCA1 protein-loaded autologous DCs by Th clones (natural processing), IFN-gamma ELISPOT. The test is classed as cell-based, human. The settings on record: DCs loaded with recombinant CDCA1 protein 50 micro g/ml. An excerpt: The 6His-tagged recombinant whole CDCA1 proteins and truncated CDCA1 proteins that lack both CDCA1-derived Th epitopes recognized by CDCA1 (55-78) and CDCA1 (39-64)-specific Th cells were expressed by E. coli BL21 strains with a pET28a vector (Novagen) that has respective cDNA fragments. The truncated CDCA1 protein was used as control protein. Each recombinant protein was purified using a HisTrap FF column (GE Healthcare) according to the manufacturer's instruction. The purity of the proteins was verified by SDS-PAGE.
The immune response of Th cells to APCs pulsed with peptides and proteins were assessed by IFN-gamma ELISPOT assays (Human IFN-gamma ELISPOT kit, BD Biosciences) as described previously (Tomita Y et al. Cancer Sci.; 102: 697-705.). Briefly, the frequency of peptide-specific CD4^+ T cells producing interferon (IFN)-gamma per 3×10^4 bulk CD4^+ T cells upon stimulation with peptide-pulsed PBMCs (3×10^4/well), or 1×10^4 bulk CD4^+ T cells upon stimulation with peptide-pulsed HLA-DR-expressing L-cells (5×10^4/well) was analyzed. The frequency of cells producing interferon (IFN)-gamma per 1×10^5 CTLs upon stimulation with peptide-pulsed T2 cells (2×10^4/well) was also analyzed. Alternatively, 5×10^3 protein-loaded DCs were co-cultured with 2×10^4 CD4^+ T cell clones/well. […]

The record followed here is patent US10206989B2, “CDCA1 epitope peptides for Th1 cells and vaccines containing the same” (OncoTherapy Science, Inc., priority 2012, dated 2019).

On to “NPKPEVLHMIYMRALQIVYGIRLEHF [CDCA1 (39-64)]”, for which the “IFN-gamma secreting tetramer+ CD8+ T-cells” value in test [1] is given as “significant proportion”. Moreover, the “Natural processing of the Th cell epitope by DC from CDCA1-protein” value in test [2] was “naturally processed”.
